Measured values reported in EP4707280A1, “1,4-CINEOLE DERIVATIVE AND INTERMEDIATE THEREOF, HERBICIDE CONTAINING SAID DERIVATIVE AS ACTIVE INGREDIENT, METHOD FOR USING HERBICIDE, AND METHOD FOR PREPARING AGROCHEMICAL COMPOSITION” (HOKKO CHEMICAL INDUSTRY CO., LTD., priority 2023, dated 2024).

Columns and labels:
Assay type in all cases: in vivo
[1] = system: Echinochloa crus-galli var. formosensis; assay: Test Example 2: herbicidal effect test by application during growth period of paddy rice; details: Echinochloa crus-galli; 120 g per 10 ares; applied seven days after sowing, flooded pots; 14 days after application; read-out: weed inhibition rate
In short: (§1)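 Paddy soil in Wagner pots was puddled with N:P:K 16:16:16 fertilizer, sown with 30 weed seeds per species at 0–1 cm and flooded to about 3 cm. Seven days after sowing, a water-diluted emulsifiable concentrate was dropped onto the water at 120 g active ingredient per 10 ares. Weed inhibition (%) was scored at 14 days, in duplicate.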

Monochoria vaginalis = assay: as above; details: Pontederia vaginalis; 120 g per 10 ares; applied seven days after sowing, flooded pots; 14 days after application; read-out: weed inhibition rate
In short: as §1

Scirpus juncoides [2] = assay: as above; details: Schoenoplectiella juncoides; 120 g per 10 ares; applied seven days after sowing, flooded pots; 14 days after application; read-out: weed inhibition rate
In short: as §1

Digitaria ciliaris [3] = assay: Test Example 4: herbicidal effect test by stem and leaf treatment in upland field; details: Digitaria ciliaris; 120 g per 10 ares; sprayed seven days after sowing, upland soil; 14 days after application; read-out: weed inhibition rate
Echinochloa crus-galli [4] = assay: as above; details: Echinochloa crus-galli; 120 g per 10 ares; sprayed seven days after sowing, upland soil; 14 days after application; read-out: weed inhibition rate
[5] = system: Echinochloa crus-galli var. formosensis; assay: Test Example 5: herbicidal effect test by soil application in paddy rice (low dose); details: Echinochloa crus-galli, soil, 336 h; 7.5 g per 10 ares; applied immediately after sowing, flooded pots; 14 days after application; read-out: weed inhibition rate
In short: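 Paddy soil in Wagner pots was fertilized (N:P:K 16:16:16), puddled, sown with 30 seeds per weed species at 0–1 cm, then flooded to ~3 cm in a glass greenhouse. Emulsifiable concentrate diluted in water was dropper-applied into floodwater immediately, at 7.5 g active ingredient per 10 ares; duplicates, scored at 14 days.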

Scirpus juncoides [6] = assay: as above; details: Schoenoplectiella juncoides, 336 h, 7.5 g per 10 ares, applied immediately after sowing, flooded pots, 14 days after application, read-out: weed inhibition rate
Protocol: The present test was conducted in duplicate for each chemical concentration group, and the weed inhibition rate (%) was determined 14 days after chemical application using the following formula (Math. 1). [formula]
Wagner pots with an area of […] were filled with paddy soil, followed by addition of water and incorporation of chemical fertilizer (N:P:K = 16:16:16), after which puddling was performed. After that, seeds of Echinochloa crus-galli var. formosensis, broad-leaved weeds (Monochoria vaginalis), and Scirpus juncoides were sown at a depth of 0 cm to 1 cm, 30 seeds each. Immediately after sowing, the pots were flooded and a water depth of approximately 3 cm was maintained. Subsequent management was conducted in a glass greenhouse. Immediately thereafter, an emulsifiable concentrate prepared according to Formulation Example 5 using the compound shown below was diluted with water, and a specified amount of the diluted solution was applied by dropper. The amount of the active ingredient to be applied was equivalent to 7.5 g per 10 ares.
The present test was conducted in duplicate for each chemical concentration group, and the herbicidal effect was evaluated 14 days after chemical application using the same criteria as in Test Example 1.

[7] = system: Echinochloa crus-galli var. formosensis; assay: Test Example 6: herbicidal effect test by application during growth period of paddy rice (low dose); details: Echinochloa crus-galli; 7.5 g per 10 ares; applied seven days after sowing, flooded pots; 14 days after application; read-out: weed inhibition rate
In short: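 Paddy-soil pots, flooded ~3 cm after sowing weed seeds at 0-1 cm depth, greenhouse-grown. Seven days after sowing, diluted emulsifiable concentrate applied by dropper at 7.5 g active ingredient per 10 ares. Weed inhibition rate (%) scored 14 days after application, in duplicate.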

Digitaria ciliaris [8] = assay: Test Example 7: herbicidal effect test by soil application in upland field (low dose); details: Digitaria ciliaris, 7.5 g per 10 ares, sprayed one day after sowing, 14 days after application, read-out: weed inhibition rate
In short: (§2)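 Pre-emergence soil application: upland alluvial loam pots sown with weed seeds mixed into the top 1 cm; one day after sowing, a water-diluted emulsifiable concentrate was sprayed on the soil at 100 L per 10 a, delivering 7.5 g active ingredient per 10 a. Weed inhibition rate (%) scored 14 days after application, duplicate pots.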

Echinochloa crus-galli [9] = assay: as above; details: Echinochloa crus-galli, 7.5 g per 10 ares, sprayed one day after sowing, 14 days after application, read-out: weed inhibition rate
In short: as §2

CC(C)[C@]12C=C[C@](C)(O1)C(OCc1ccccc1F)C2 (mixture of isomers) [3-5, (1R,4S,SR)-5-[(2-fluorophenyl)methoxy]-4-methyl-1-isopropyl-7-oxabicyclo[2.2.1]hept-2-ene]
≥ 80%: inhibition at 1200 g/ha [1] | inhibition at 1200 g/ha (Monochoria vaginalis) | inhibition at 1200 g/ha (Scirpus juncoides [2]) | inhibition at 1200 g/ha (Digitaria ciliaris [3]) | inhibition at 1200 g/ha (Echinochloa crus-galli [4]) | inhibition at 75 g/ha [5] | inhibition at 75 g/ha (Scirpus juncoides [6]) | inhibition at 75 g/ha [7] | inhibition at 75 g/ha (Digitaria ciliaris [8]) | inhibition at 75 g/ha (Echinochloa crus-galli [9])

CC(C)[C@]12C[C@@H](OCc3c(F)cccc3F)[C@](C)(C[C@@H]1F)O2 [1-7, (1S,2R,4R,5S)-2-((2,6-difluorobenzyl)oxy)-5-fluoro-4-isopropyl-1-methyl-7-oxabicyclo[2.2.1]heptane]
≥ 80%: inhibition at 1200 g/ha [1] | inhibition at 1200 g/ha (Monochoria vaginalis) | inhibition at 1200 g/ha (Scirpus juncoides [2]) | inhibition at 1200 g/ha (Digitaria ciliaris [3]) | inhibition at 1200 g/ha (Echinochloa crus-galli [4]) | inhibition at 75 g/ha [5] | inhibition at 75 g/ha (Scirpus juncoides [6]) | inhibition at 75 g/ha [7] | inhibition at 75 g/ha (Digitaria ciliaris [8]) | inhibition at 75 g/ha (Echinochloa crus-galli [9])

CC(C)[C@]12C[C@@H](OCc3ccccc3F)[C@](C)(C[C@@H]1Br)O2 [1-19, (1S,2R,4R,5S)-5-bromo-2-[(2-fluorophenyl)methoxy]-1-methyl-4-isopropyl-7-oxabicyclo[2.2.1]heptane]
≥ 80%: inhibition at 1200 g/ha [1] | inhibition at 1200 g/ha (Monochoria vaginalis) | inhibition at 1200 g/ha (Scirpus juncoides [2]) | inhibition at 1200 g/ha (Digitaria ciliaris [3]) | inhibition at 1200 g/ha (Echinochloa crus-galli [4]) | inhibition at 75 g/ha [5] | inhibition at 75 g/ha (Scirpus juncoides [6]) | inhibition at 75 g/ha [7] | inhibition at 75 g/ha (Digitaria ciliaris [8]) | inhibition at 75 g/ha (Echinochloa crus-galli [9])

CC(C)[C@]12C[C@@H](OCc3ccccc3F)[C@](C)(C[C@@H]1O)O2 [1-30, (1R,2S,4S,5R)-5-((2-fluorobenzyl)oxy)-1-isopropyl-4-methyl-7-oxabicyclo[2.2.1]heptan-2-ol]
≥ 80%: inhibition at 1200 g/ha [1] | inhibition at 1200 g/ha (Monochoria vaginalis) | inhibition at 1200 g/ha (Scirpus juncoides [2]) | inhibition at 1200 g/ha (Digitaria ciliaris [3]) | inhibition at 1200 g/ha (Echinochloa crus-galli [4]) | inhibition at 75 g/ha [5] | inhibition at 75 g/ha (Scirpus juncoides [6]) | inhibition at 75 g/ha [7] | inhibition at 75 g/ha (Digitaria ciliaris [8]) | inhibition at 75 g/ha (Echinochloa crus-galli [9])

CC(C)[C@]12C[C@@H](OCc3c(F)cccc3F)[C@](C)(C[C@@H]1O)O2 [1-41, (1R,2S,4S,5R)-5-((2,6-difluorobenzyl)oxy)-1-isopropyl-4-methyl-7-oxabicyclo[2,2,1]heptan-2-ol]
≥ 80%: inhibition at 1200 g/ha [1] | inhibition at 1200 g/ha (Monochoria vaginalis) | inhibition at 1200 g/ha (Scirpus juncoides [2]) | inhibition at 1200 g/ha (Digitaria ciliaris [3]) | inhibition at 1200 g/ha (Echinochloa crus-galli [4]) | inhibition at 75 g/ha [5] | inhibition at 75 g/ha (Scirpus juncoides [6]) | inhibition at 75 g/ha [7] | inhibition at 75 g/ha (Digitaria ciliaris [8]) | inhibition at 75 g/ha (Echinochloa crus-galli [9])

CO[C@H]1C[C@]2(C)O[C@@]1(C(C)C)C[C@H]2OCc1ccccc1C [1-151, (1 S,2R,4R,5S)-4-isopropyl-5-methoxy-l-methyl-2-((2-methylbenzyl)oxy)-7-oxabicyclo[2.2.1]heptane]
≥ 80%: inhibition at 1200 g/ha [1] | inhibition at 1200 g/ha (Monochoria vaginalis) | inhibition at 1200 g/ha (Scirpus juncoides [2]) | inhibition at 1200 g/ha (Digitaria ciliaris [3]) | inhibition at 1200 g/ha (Echinochloa crus-galli [4]) | inhibition at 75 g/ha [5] | inhibition at 75 g/ha (Scirpus juncoides [6]) | inhibition at 75 g/ha [7] | inhibition at 75 g/ha (Digitaria ciliaris [8]) | inhibition at 75 g/ha (Echinochloa crus-galli [9])

CC(C)CC1C[C@]2(C)O[C@@]1(C(C)C)C[C@H]2OCc1ccccc1F (stereo partly drawn) [1-915, (1S,2R,4R)-2-((2-fluorobenzyl)oxy)-5-isobutyl-4-isopropyl-1-methyl-7-oxabicyclo[2.2.1]heptane]
≥ 80%: inhibition at 1200 g/ha [1] | inhibition at 1200 g/ha (Monochoria vaginalis) | inhibition at 1200 g/ha (Scirpus juncoides [2]) | inhibition at 1200 g/ha (Digitaria ciliaris [3]) | inhibition at 1200 g/ha (Echinochloa crus-galli [4]) | inhibition at 75 g/ha [5] | inhibition at 75 g/ha (Scirpus juncoides [6]) | inhibition at 75 g/ha [7]
